Reference: US10513538B2, “Dipeptidyl peptidase-IV (DPPIV), inhibitory peptide compound, composition containing the same, and production method for the same” (MARUHA NICHIRO CORPORATION, priority 2013, dated 2019)
Residues, ends and D or L forms follow the SMILES beside them.

Target: T1, DPPIV (Human, recombinant) (Homo sapiens, UniProt P27487)
T1 construct: purchased Biomol (DPPIV Drug Discovery Assay Kit, Enzo Life Sciences, Inc.)
Assay: DPPIV inhibitory activity measurement with partly modified DPPIV Drug Discovery Assay Kit (AMC substrate)
Format: biochemical
Settings: for IC50: synthesized peptide, serially diluted; for Activity Contribution Ratio (%): contribution of the peptide to the DPPIV inhibitory activity of the salmon milt peptide composition, from content, peptide IC50 and composition IC50
Method: Each of the DPPIV inhibitory peptide compounds obtained in Example 1 was measured for the DPPIV inhibitory activity. The measurement was performed by using a partly modified DPPIV Drug Discovery Assay Kit (manufactured by Enzo Life Sciences, Inc.). As a substrate of a DPPIV enzyme, an AMC substrate (H-Gly-Pro-amino-4-methylcoumarin, BML-P189-9090; manufactured by Biomol) was used, as an enzyme, DPPIV (Human, recombinant; manufactured by Biomol) was used, and as a control inhibitor, Diprotin A (manufactured by Peptide Institute Inc.) was used. […] To the resultant solution, 50 μL of an AMC substrate solution (0.01 mM) pre-incubated at 37° C. was added, and a fluorescence intensity was measured at an excitation wavelength of 340 nm and a measurement wavelength of 460 nm every 5 minutes for 30 minutes by using a microplate reader (GENio Pro, manufactured by TECAN). The activity in the case without sample was set as 100%, and the relative activity of each sample was calculated. The measurement was repeatedly performed three times for each sample to obtain an average.
Each of the peptide compositions thus obtained was dissolved in distilled water in a concentration of 3 mg/mL, the resultant was subjected to a 0.45 μm membrane filter treatment, and the DPPIV inhibitory activity test was performed in the same manner as in Example 2.
Each peptide identified by the LC-MS analysis of Example 6 was synthesized and dissolved in distilled water to find the DPPIV inhibitory activity in the same manner as in Example 2.

T1 sequence (P27487 whole entry): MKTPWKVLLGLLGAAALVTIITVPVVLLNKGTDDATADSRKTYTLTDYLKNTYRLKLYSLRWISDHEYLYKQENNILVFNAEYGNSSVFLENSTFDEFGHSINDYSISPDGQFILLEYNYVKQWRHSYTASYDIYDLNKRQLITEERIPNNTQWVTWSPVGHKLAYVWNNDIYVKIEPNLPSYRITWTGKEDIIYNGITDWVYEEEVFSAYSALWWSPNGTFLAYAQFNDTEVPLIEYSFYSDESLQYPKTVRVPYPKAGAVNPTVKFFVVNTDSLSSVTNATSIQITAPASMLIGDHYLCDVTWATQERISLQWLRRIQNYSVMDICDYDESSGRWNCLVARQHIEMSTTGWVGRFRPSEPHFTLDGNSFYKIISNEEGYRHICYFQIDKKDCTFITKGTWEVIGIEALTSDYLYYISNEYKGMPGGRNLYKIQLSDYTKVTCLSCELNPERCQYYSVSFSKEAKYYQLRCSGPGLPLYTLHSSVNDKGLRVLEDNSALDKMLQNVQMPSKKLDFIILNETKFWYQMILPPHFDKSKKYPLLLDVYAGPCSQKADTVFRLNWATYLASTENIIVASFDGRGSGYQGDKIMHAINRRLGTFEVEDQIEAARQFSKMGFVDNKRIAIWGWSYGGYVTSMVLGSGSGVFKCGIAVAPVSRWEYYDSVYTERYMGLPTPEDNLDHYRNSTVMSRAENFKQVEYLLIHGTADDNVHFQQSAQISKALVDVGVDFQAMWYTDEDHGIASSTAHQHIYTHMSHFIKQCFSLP

SMILES	IC50	Activity Contribution Ratio (%)
CC(C)[C@H](NC(=O)[C@@H]1CCCN1C(=O)[C@@H](N)Cc1ccccc1)C(=O)NCC(=O)O [FPVG, Phe-Pro-Val-Gly] (H-FPVG-OH; N-terminus and C-terminus assumed)	40 µM	0.4%
N[C@@H](Cc1ccccc1)C(=O)N1CCC[C@H]1C(=O)O [FP, Phe-Pro] (H-Phe-Pro-OH)	> 100 µM	

Second part, the compound after the results:

IC50	Activity Contribution Ratio (%)	SMILES
> 100 µM		CC(C)C[C@H](N)C(=O)N1CCC[C@H]1C(=O)O [LP, Leu -Pro] (H-Leu-Pro-OH)
66 µM	6.6%	CC[C@H](C)[C@H](N)C(=O)N1CCC[C@H]1C(=O)O [IP, Ile-Pro] (H-Ile-Pro-OH; N-terminus and C-terminus assumed)
46 µM	0.2%	CC(C)C[C@H](NC(=O)[C@@H](NC(=O)[C@@H]1CCCN1C(=O)[C@@H](N)CC(C)C)C(C)C)C(=O)O [LPVL, Leu-Pro-Val-Leu] (H-LPVL-OH; N-terminus and C-terminus assumed)
